Measurements as given in ChEMBL document CHEMBL4340502, “Anti-biofilm and anti-adherence properties of novel cyclic dipeptides against oral pathogens” (Bioorg Med Chem, 2019).
In brackets after ≈: the same amount, converted by molar mass. Activity calls are given as the source filed them. Unless noted, no cut-off for these calls is given here.

Key:
Fusobacterium nucleatum = assay: Antibiofilm activity against Fusobacterium nucleatum ATCC 25586 assessed as inhibition of biofilm formation up to 96 ug/mL after 24 hrs by crystal violet staining based assay; type: functional, organism-based
Porphyromonas gingivalis = assay: Antibiofilm activity against Porphyromonas gingivalis ATCC 33277 assessed as inhibition of biofilm formation up to 96 ug/mL after 24 hrs by crystal violet staining based assay; type: functional, organism-based
Streptococcus mutans [1] = assay: Antibiofilm activity against Streptococcus mutans ATCC 25175 assessed as inhibition of biofilm formation at 6 to 12 ug/mL after 24 hrs by crystal violet staining-based assay; type: functional, organism-based
[2] = test system: Limosilactobacillus fermentum; assay: Antibiofilm activity against Lactobacillus fermentum LacB1 assessed as inhibition of biofilm formation up to 96 ug/mL after 24 hrs by crystal violet staining based assay; type: functional, organism-based
Candida albicans [3] = assay: Antiadherence activity against FITC-labelled Candida albicans ATCC 28366 assessed as reduction in bacterial adhesion to hydroxylapatite up to 96 ug/mL after 1 hr by fluorescence assay relative to control; type: functional
Streptococcus mutans [4] = assay: Antiadherence activity in FITC-labelled Streptococcus mutans ATCC 25175 assessed as reduction in bacterial adhesion to hydroxylapatite up to 96 ug/mL after 1 hr fluorescence assay; type: functional, organism-based
Listeria monocytogenes = assay: Growth inhibition of Listeria monocytogenes WSLC 1001 incubated for 24 hrs under aerobic condition by microdilution method; type: organism-based; details: in vitro
Staphylococcus aureus = assay: Growth inhibition of Staphylococcus aureus ATCC 6538 incubated for 24 hrs under aerobic condition by microdilution method; type: organism-based; details: in vitro
Pseudomonas aeruginosa = assay: Growth inhibition of Pseudomonas aeruginosa ATCC 10145 incubated for 24 hrs under aerobic condition by microdilution method; type: organism-based
Escherichia coli = assay: Growth inhibition of Escherichia coli ATCC 15939 incubated for 24 hrs under aerobic condition by microdilution method; type: organism-based
Streptococcus mutans [5] = assay: Disruption of Streptococcus mutans ATCC 25175 pre-formed mature biofilm assessed as reduction in biofilm biomass at 96 ug/mL after 12 hrs by crystal violet staining based assay; type: functional, organism-based
Candida albicans [6] = assay: Disruption of Candida albicans ATCC 28366 pre-formed mature biofilm assessed as reduction in biofilm biomass at 96 ug/mL after 12 hrs by crystal violet staining based assay; type: functional, organism-based
Streptococcus mutans [7] = assay: Antibiofilm activity against Streptococcus mutans ATCC 25175 assessed as inhibition of biofilm formation up to 96 ug/mL after 24 hrs by crystal violet staining-based assay; type: functional, organism-based
Candida albicans [8] = assay: Antibiofilm activity against Candida albicans ATCC 28366 assessed as reduction of biofilm formation at 24 to 48 ug/mL after 24 hrs by crystal violet staining based assay; type: functional, organism-based
Candida albicans [9] = assay: Growth inhibition of Candida albicans ATCC 28366 up to 96 ug/ml measured after 24 hrs by microdilution method; type: organism-based; details: in vitro
Candida albicans [10] = assay: Antibiofilm activity against Candida albicans ATCC 28366 assessed as reduction of biofilm formation after 24 hrs by crystal violet staining based assay; type: functional, organism-based
Streptococcus mutans [11] = assay: Inhibition of planktonic growth of Streptococcus mutans ATCC 25175 up to 96 ug/mL after 24 hrs relative to control; type: organism-based
Actinomyces naeslundii [12] = assay: Antibiofilm activity against Actinomyces naeslundii ATCC 49340 assessed as prevention of homogenous biofilm formation at 96 ug/mL after 24 hrs by crystal violet staining-based assay; type: functional, organism-based
[13] = biological target: Mu-type opioid receptor (Rattus norvegicus) (UniProt P33535); assay: Displacement of [3H]DAMGO from mu-opioid receptor in Long-Evans rat brain after 1 hr by liquid scintillation counting method; type: tissue-based
Streptococcus mutans [14] = assay: Growth inhibition of Streptococcus mutans ATCC 25175 incubated for 24 hrs under aerobic condition by microdilution method; type: organism-based
Streptococcus mutans [15] = assay: Bactericidal activity against Streptococcus mutans ATCC 25175; type: organism-based
Candida albicans [16] = assay: Antibiofilm activity against Candida albicans ATCC 28366 assessed as reduction of biofilm formation up to 96 ug/mL after 24 hrs by crystal violet staining based assay; type: functional, organism-based
Actinomyces naeslundii [17] = assay: Antibiofilm activity against Actinomyces naeslundii ATCC 49340 assessed as reduction in biofilm formation up to 96 ug/mL after 24 hrs by crystal violet staining-based assay; type: functional, organism-based
Streptococcus mutans [18] = assay: Inhibition of planktonic growth of Streptococcus mutans ATCC 25175 at 96 ug/mL measured after 24 hrs relative to control; type: organism-based
Fibroblast = assay: Cytotoxicity against human fibroblasts; type: cell-based
A549 = assay: Growth inhibition of human A549 cells; type: functional, cell-based
[19] = Solubility of the compound in water; type: physicochemical; details: buffer
Actinomyces naeslundii [20] = assay: Antibiofilm activity against Actinomyces naeslundii ATCC 49340 assessed as reduction of biofilm formation at 48 ug/mL after 24 hrs by crystal violet staining based assay; type: functional, organism-based
Actinomyces naeslundii [21] = assay: Antibiofilm activity against Actinomyces naeslundii ATCC 49340 assessed as inhibition of bacterial adhesion up to 96 ug/mL after 24 hrs by crystal violet staining based assay; type: functional, organism-based
Actinomyces naeslundii [22] = assay: Antibiofilm activity against Actinomyces naeslundii ATCC 49340 assessed as prevention of homogenous biofilm formation up to 96 ug/mL after 24 hrs by crystal violet staining based assay; type: functional, organism-based
Actinomyces naeslundii [23] = assay: Antibiofilm activity against Actinomyces naeslundii ATCC 49340 assessed as reduction of biofilm formation by visual analysis; type: functional, organism-based
Enterococcus faecalis = assay: Antimicrobial activity against vancomycin-resistant Enterococcus faecalis measured after 24 hrs by agar-dilution method; type: functional

Mu-type opioid receptor (Rattus norvegicus), sequence (P33535 whole entry): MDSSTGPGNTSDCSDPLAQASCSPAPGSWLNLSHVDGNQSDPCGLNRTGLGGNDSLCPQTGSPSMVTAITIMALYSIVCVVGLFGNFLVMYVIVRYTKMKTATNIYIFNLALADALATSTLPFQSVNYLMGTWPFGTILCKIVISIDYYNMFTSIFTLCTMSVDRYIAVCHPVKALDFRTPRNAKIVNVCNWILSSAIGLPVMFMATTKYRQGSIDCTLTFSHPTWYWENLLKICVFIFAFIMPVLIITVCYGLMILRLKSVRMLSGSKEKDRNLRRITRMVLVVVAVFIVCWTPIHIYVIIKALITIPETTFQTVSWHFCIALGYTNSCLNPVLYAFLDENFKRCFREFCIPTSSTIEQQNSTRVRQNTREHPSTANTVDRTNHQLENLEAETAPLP

Compound | inhibition (Fusobacterium nucleatum) | inhibition (Porphyromonas gingivalis) | Activity (Streptococcus mutans [1]) | inhibition [2] | Activity (Candida albicans [3]) | Activity (Streptococcus mutans [4]) | MIC (Listeria monocytogenes) [µg/mL] | MIC (Staphylococcus aureus) [µg/mL] | MIC (Pseudomonas aeruginosa) [µg/mL] | MIC (Escherichia coli) [µg/mL] | Activity (Streptococcus mutans [5]) | Activity (Candida albicans [6]) | inhibition (Streptococcus mutans [7]) | Activity (Candida albicans [8]) | growth inhibition (GI) (Candida albicans [9]) | Activity (Candida albicans [10]) | growth inhibition (GI) (Streptococcus mutans [11]) | inhibition (Actinomyces naeslundii [20]) | inhibition (Actinomyces naeslundii [21]) | Activity (Actinomyces naeslundii [22]) | further results
O=C1N[C@@H](Cc2ccc(OCc3ccccc3)cc2)C(=O)N[C@H]1Cc1ccccc1 | inactive | inactive | Active | inactive | Active | Active | > 192 | > 192 | > 192 | > 192 | inactive | inactive | Active | Active | Non-Toxic | Dose-dependent effect | Non-Toxic | – | – | – | Activity (Actinomyces naeslundii [12]): inactive
O=C1N[C@@H](Cc2ccc(O)cc2)C(=O)N[C@H]1Cc1ccc(O)cc1 | inactive | inactive | – | inactive | 20% | inactive | > 192 | > 192 | > 192 | > 192 | – | – | inactive | – | Non-Toxic | – | Toxic | – | – | – | Activity [13]: Active; MIC (Streptococcus mutans [14]): 96 µg/mL (≈ 294 µM); MBC (Streptococcus mutans [15]): > 192 µg/mL; Activity (Candida albicans [16]): Active; Activity (Actinomyces naeslundii [17]): inactive
O=C1N[C@@H](Cc2ccc(O)cc2)C(=O)N[C@H]1Cc1ccccc1 | inactive | inactive | – | inactive | inactive | – | > 192 | > 192 | > 192 | > 192 | – | – | inactive | – | Non-Toxic | – | Toxic | – | – | – | Activity [13]: Active; inhibition (INH) (Streptococcus mutans [18]): 20%; Activity (Fibroblast): Non-Toxic; IC50 (A549): 10 µM; Activity (Candida albicans [16]): Active; Activity (Actinomyces naeslundii [17]): inactive
O=C1N[C@H](Cc2ccc(OCc3ccccc3)cc2)C(=O)N[C@H]1Cc1ccccc1 | inactive | inactive | – | inactive | – | – | > 192 | > 192 | > 192 | > 192 | – | – | inactive | – | – | – | Non-Toxic | – | – | – | solubility [19]: Insoluble
O=C1N[C@H](Cc2ccccc2)C(=O)N[C@H]1Cc1ccc(OCc2ccccc2)cc1 | inactive | inactive | Active | inactive | Active | Active | > 192 | > 192 | > 192 | > 192 | inactive | inactive | Active | Active | Non-Toxic | Dose-dependent effect | Non-Toxic | Active | inactive | Active | inhibition (Actinomyces naeslundii [23]): Active
O=C1N[C@H](Cc2ccc(OCc3ccccc3)cc2)C(=O)N[C@@H]1Cc1ccc(OCc2ccccc2)cc1 | inactive | inactive | Active | inactive | Active | Active | > 192 | > 192 | > 192 | > 192 | inactive | inactive | Active | Active | Non-Toxic | Dose-dependent effect | Non-Toxic | Active | inactive | Active | inhibition (Actinomyces naeslundii [23]): Active
O=C1N[C@@H](Cc2ccc(OCc3ccccc3)cc2)C(=O)N[C@H]1Cc1ccc(OCc2ccccc2)cc1 | inactive | inactive | Active | inactive | Active | Active | > 192 | > 192 | > 192 | > 192 | inactive | inactive | Active | Active | Non-Toxic | Dose-dependent effect | Non-Toxic | Active | inactive | Active | inhibition (Actinomyces naeslundii [23]): Active
CC(C)C[C@@H]1NC(=O)[C@@H]2CCCN2C1=O | inactive | inactive | – | – | – | – | – | – | – | – | – | – | inactive | – | – | – | Non-Toxic | – | – | – | MIC (Enterococcus faecalis): 12.5 µg/mL (≈ 59.4 µM)
